Results reported in PMC11973282, “RAS70 peptide targets multiforme glioblastoma by binding to the plasma membrane heat shock protein HSP70” (Frontiers in Oncology, 2025).

What was measured:
[1] = test system: primary GBM IBD cells; test: Cell motility analysis; assay type: cell-based, human; settings: 56 h recording
Method: The cell speed of the primary GBM culture was determined using Image ExFluorer, an automatic cell imaging device (LCI, Korea). The cells were seeded into 24-well plates, and the cell nuclei were labelled with the fluorescent dye Hoechst 33342. The plates were then placed in an integrated incubator with temperature control (37°C) and 5% CO2. The fluorescence was stimulated at 405 nm using a long-focus semi-apochromatic 20× lens with a numerical aperture of 0.45. The primary IBD cell line was divided into 4 wells, each with five visual fields: two untreated wells on distinct matrices (Collagen I and Fibrinogene) and two wells containing RAS70 peptide on matrices.
FOVs were captured every 15 minutes over 56 hours, resulting in images with a resolution of 2.560 × 2.160 pixels (0.33 μm/px). Real-time focus correction was used. The captured frames were analyzed using the NIS-Elements software with a module for automatic segmentation, quantification, and tracking of individual cells. Cell nuclei (with a diameter of more than 2.5 μm) were recognized in images, and the X-Y coordinates of the nuclei were recorded. Cell movement tracks were built according to the coordinates of the nuclei, and the motility metrics (average speed, maximal speed, and track straightness) were calculated.
Additionally, we evaluated the effect of RAS70 peptide on cell motility of primary glioblastoma culture. In order to investigate the possible influence of the RAS70 peptide on the invasive capacity of tumor cells, we conducted an experiment in which we recorded cell motility on two different substrates (Collagen I, Fibrinogen) for 56 h.

[2] = test system: high-grade glioma biopsy material; test: Ex vivo topical application on patient brain tumor specimens, confocal/fluorescent microscopy; set-up: species or system human
Excerpt: To study RAS70 peptide accumulation in the brain tumors the latter were obtained from neuro-oncological patients. Intraoperative biopsy material obtained from adult (n=6) and pediatric (n=2) patients with radiological diagnosis of high-grade gliomas without previous radiation therapy and chemotherapy. The patients underwent microsurgical interventions between February 2024 and July 2024 ( Table 1 ). The study protocol was approved by the Ethics Committee of the Almazov Medical Research Centre (approval No. 2712-20, December 21, 2020).
To evaluate local accumulation of the fluorescently-labeled peptides the latter were sprayed over the freshly dissected brain tumor specimens as follows (1): control group – PBS (50 μL) (2); NGL-sCy7.5 peptide (50 μl, at concentration of 100 μg) (3); NGL-RGD-sCy7.5 peptide (50 μl, at concentration of 100 μg) (4); TKD-sCy7.5 peptide (50 μl, at concentration of 100 μg) (5); […] peptide (50 μl, at concentration of 100 μg). […]
Small pieces of brain tissue (50-100 mm³) were taken from patients or animals during surgery. […] Hoechst 33342 fluorescence was excited with a 405 nm laser and recorded in the range 410 to 550 nm; Hsp70-FITC and Mito Green fluorescence were excited with a 488 nm laser and recorded in the range 495 to 550 nm; and Cy5 fluorescence was excited with a 633 nm laser and recorded in the range 635 to 750 nm. […]
To study the target properties of the peptide RAS70 ex vivo, biopsy material was obtained from adult (n=6) and pediatric (n=2) neurooncological patients ( Table 1 ). […] Subsequently, tumor was co-incubated with peptide at a concentration of 1 mg/mL for 5–10 minutes, after which the tissue sample was washed with a PBS solution and analyzed by live-cell inverted confocal microscopy ( Figures 11A–C ).
To detect peptide localization, the biopsy material was additionally stained with a mitochondrial marker MitoGreen and anti-Hsp70 antibodies (SPA-810). […] Additionally, we assessed the depth of the RAS70-sCy3/sCy5 penetration into the tumor tissues […]. […]

[3] = test system: U251 cells (lower chamber; HUVEC and astrocytes barrier); test: Transwell BBB model, peptide passage and accumulation in tumor cells; settings: transwell BBB model: HUVEC (5×10^5) and astrocytes (5×10^5) in upper chamber, U251 (1×10^4) in lower chamber; FITC-labeled peptide; 36 hours; confocal microscopy count; M ± SE, 3 independent experiments
Method: Then, a peptide labeled with a fluorescent label was introduced into the upper chamber and co-incubation was carried out for 12, 24 and 36 hours. At the end of the incubation, the tumor cells were washed with cold phosphate-buffered saline (PBS) and fixed with a 4% solution of paraformaldehyde in PBS. Nuclei were stained with 4’,6-diamidino-2-phenylindole (DAPI). Fluorescent images were obtained using a Leica TCS SP8 confocal microscope (Leica, Germany). To avoid possible cross-interference of different fluorochromes, images for DAPI and FITC were obtained using a sequential sample scanning method. Fluorescently labeled cells were counted in the lower chamber. To estimate the mHsp70-mediated uptake of chaperone-targeted peptides tumor cells prior to incubation were pre-treated with anti-Hsp70 monoclonal antibodies SPA-810 (1:250, Stressgen) and SPA-815 (1:250 Stressgen). To exclude integrin (αvβ3, αvβ5)-mediated penetration of RAS70 tumor cells prior to incubation with peptides were pre-treated with anti- αvβ3 (1:200 clone LM609, ZMS1030, Sigma-Aldrich, USA), -αvβ5 (1:200 clone P1F6, MAB1961Z, Sigma-Aldrich, USA) monoclonal antibodies.
Then, a peptide labeled with a fluorescent dye (FITC) was introduced into the upper chamber and co-incubation was carried out for 12, 24 and 36 hours. At the end of the incubation, the tumor cells were washed with cold phosphate-buffered saline (PBS) and fixed with a 4% solution of paraformaldehyde in PBS. Nuclei were stained with 4’,6-diamidino-2-phenylindole (DAPI).
Data from 3 independent experiments are presented as M ± SE. […] Data from 3 independent experiments are presented as M ± SE. ** p < 0.01 for testing mean expression levels.

Row | SMILES | effect on average cell speed ([1]; IBD cells on Collagen I) | effect on maximum cell speed ([1]; IBD cells on Collagen I) | effect on track straightness ([1]; IBD cells on Collagen I) | effect on motility metrics (average speed, max speed, track straightness) ([1]; IBD cells on fibrinogen) | accumulation in patient brain tumor samples ([2]; 1 mg/mL, 5–10 minutes, live-cell inverted confocal microscopy, adult (n=6) and pediatric (n=2) patients) | depth of the peptide penetration into the tumor tissues ([2]; RAS70-sCy3/sCy5 topically applied on patient tumor samples, histological sections, fluorescent microscopy) [mm] | retention in necrotic tumor areas ([2]; patient tumor samples, confocal microscopy) | fluorescently labeled tumor cells in the lower chamber [3] [cells]
1 | CC(C)C[C@H](NC(=O)[C@H](CC(C)C)NC(=O)[C@H](CC(N)=O)NC(=O)[C@H](CC(N)=O)NC(=O)[C@H](CC(=O)O)NC(=O)[C@H](CCCCN)NC(=O)[C@@H](N)[C@@H](C)O)C(=O)NCC(=O)N[C@@H](CCCNC(=N)N)C(=O)N[C@@H](Cc1ccccc1)C(=O)N[C@@H](CCC(=O)O)C(=O)N[C@@H](CC(C)C)C(=O)N[C@@H](CO)C(=O)NCC(=O)NCCC(=O)N[C@@H](CCCNC(=N)N)C(=O)NCC(=O)N[C@@H](CC(=O)O)C(=O)O [RAS70] | no effect on the average cell speed | slightly diminished maximum cell speed | increased the straightness of the trajectories | did not affect any of the measured motility metrics | noted in all analyzed samples | 3.0 ± 0.87 | non-specific retention of the peptide | –
2 | CC(C)C[C@H](NC(=O)[C@H](CC(C)C)NC(=O)[C@H](CC(N)=O)NC(=O)[C@H](CC(N)=O)NC(=O)[C@H](CC(=O)O)NC(=O)[C@H](CCCCN)NC(=O)[C@@H](N)[C@@H](C)O)C(=O)NCC(=O)N[C@@H](CCCNC(=N)N)C(=O)N[C@@H](Cc1ccccc1)C(=O)N[C@@H](CCC(=O)O)C(=O)N[C@@H](CC(C)C)C(=O)N[C@@H](CO)C(=O)NCC(=O)O [TKD] | – | – | – | – | – | – | – | 345 ± 51
